Reference: patent US10766914B2, “DNA alkylating agents” (OBI PHARMA, INC., priority 2015, dated 2020)

Assays:
Hep G2 = assay: TH2870 sensitivity in liver cancer cells; assay type: cell-based, human
SNU-475 = assay: TH2870 sensitivity in liver cancer cells; assay type: cell-based, human; details: AKR1C3 expression ++++
LIC-0903 = assay: TH2870 sensitivity in liver cancer cells; assay type: cell-based, human; details: AKR1C3 expression ++++
LIXC-003 = assay: TH2870 sensitivity in liver cancer cells; assay type: cell-based, human; details: AKR1C3 expression ++++
LIXC-011 = assay: TH2870 sensitivity in liver cancer cells; assay type: cell-based, human; details: AKR1C3 expression ++++
PLC/PRF/5 = assay: TH2870 sensitivity in liver cancer cells; assay type: cell-based, human; details: AKR1C3 expression +++
LIXC-002 = assay: TH2870 sensitivity in liver cancer cells; assay type: cell-based, human; details: AKR1C3 expression +++
LIXC-066 = assay: TH2870 sensitivity in liver cancer cells; assay type: cell-based, human; details: AKR1C3 expression ++
SNU-423 = assay: TH2870 sensitivity in liver cancer cells; assay type: cell-based, human; details: AKR1C3 expression +
Hep 3B2.1-7 = assay: TH2870 sensitivity in liver cancer cells; assay type: cell-based, human; details: AKR1C3 expression /
DU145 = assay: TH2870 sensitivity in prostate cancer cell lines; assay type: cell-based; details: Homo sapiens, DU-145
PC-3 = assay: TH2870 sensitivity in prostate cancer cell lines; assay type: cell-based; details: Homo sapiens
[1] = test system: A 549 non-small cell lung xenograft; assay: Example 4-B antitumor efficacy, ectopic A549 NSCLC xenograft model; assay type: in vivo, female nude mice (nu/nu); details: 20 mg/kg ip QD × 5/wk × 2 wks
[2] = Example 4-B body weight change, A549 xenograft study; assay type: in vivo, female nude mice (nu/nu); details: 20 mg/kg ip QD × 5/wk × 2 wks
[3] = Nu-Foxn1nu NU/NU, mouse, in vivo, ip, 20 mg/kg
Procedure: The pharmacokinetics of TH2870 were determined in Mouse/Nu-Foxn 1^nu NU/NU mice with A549 (non small cell lung), A375 (melanoma) and 786-O (renal cell) human tumor xenograft models following a single intraperitoneal dose of 20 mg/kg.

[4] = Homo sapiens, read-out: RelIC50

CC(OP(=O)(N1CC1)N1CC1)c1ccc([N+](=O)[O-])c(Oc2cccc(C(=O)N(C)C)c2)c1 (centres unmarked) [Compound 2870]
Max Inhibition % (Hep G2; AKR1C3 expression ++++): 98.9%
IC50 (Hep G2; Homo sapiens, HepG2, AKR1C3 expression ++++, read-out: RelIC50): 5.5 nM
Max Inhibition % (SNU-475): 100.4%
IC50 (SNU-475; [4]): 8 nM
Max Inhibition % (LIC-0903): 96.3%
IC50 (LIC-0903; [4]): 81.9 nM
Max Inhibition % (LIXC-003): 44.6%
IC50 (LIXC-003; [4]): 5.4 nM
Max Inhibition % (LIXC-011): 97.4%
IC50 (LIXC-011; [4]): 40.8 nM
Max Inhibition % (PLC/PRF/5): 53.3%
Max Inhibition % (LIXC-002): 99.1%
IC50 (LIXC-002; [4]): 56 nM
Max Inhibition % (LIXC-066): 75.4%
IC50 (LIXC-066; [4]): 94.1 nM
Max Inhibition % (SNU-423): 43.3%
IC50 (SNU-423; [4]): > 1000 nM
Max Inhibition % (Hep 3B2.1-7): 8.1%
IC50 (Hep 3B2.1-7; [4]): > 1000 nM
IC50 (DU145): 42.9 nM
IC50 (PC-3): 161 nM
TGD 500 [1]: >72 days
TGI [1]: 102.3%
Max. BW loss % [2]: 1.6%
activation of TH2870 in liver (TH2660 relative to TH2870) [3]: ~13 fold
activation of TH2870 in tumor (TH2660 relative to TH2870) [3]: ~148 fold
